Experimental data from patent US20100298141A1, “SUBSTITUTED PYRIDINE N-OXIDE HERBICIDES” (E. I. DU PONT DE NEMOURS AND COMPANY, priority 2007, published 2010).

Columns and labels:
barnyardgrass = assay: Test A pre-/postemergence greenhouse test; format: in vivo, Echinochloa crus-galli; settings: for Barnyardgrass plant response rating: 0 to 100 scale; for Plant response rating, Barnyardgrass: 0 to 100 scale where 0 is no effect and 100 is complete control
Procedure, shortened: (§1)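 Pre: directed soil spray on seeded loam/sand. Post: foliar spray, plants 2–10 cm, 1–2 leaf stage, applied concurrently. Vehicle: non-phytotoxic solvent + surfactant. Greenhouse ~10 d; visual injury rating vs untreated controls.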

yellow nutsedge = assay: Test C pre-/postemergence test; format: in vivo, Cyperus esculentus; settings: for Plant response rating, Nutsedge, Yellow: 31 g ai/ha, scale 0 to 100 (0 no effect, 100 complete control)
Procedure, shortened: (§2)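 Test chemicals were formulated with surfactant in a non-phytotoxic solvent and sprayed both on freshly planted seeds (preemergence) and on 1- to 4-leaf plants of 2–18 cm (postemergence). Flooded-paddy pots received compound directly into 3 cm of standing water, maintained for the test.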

soybean = assay: Test C pre-/postemergence test; format: in vivo, Glycine max; settings: for Plant response rating, Soybean: 31 g ai/ha, scale 0 to 100 (0 no effect, 100 complete control)
Procedure, shortened: as §2

blackgrass = assay: Test C pre-/postemergence test; format: in vivo, Alopecurus myosuroides
Procedure, shortened: as §2

wheat = assay: Test C pre-/postemergence test; format: in vivo, Triticum aestivum; settings: for Plant response rating, Wheat: 31 g ai/ha, scale 0 to 100 (0 no effect, 100 complete control)
Procedure, shortened: as §2

kochia = assay: Test C pre-/postemergence test; format: in vivo, Kochia scoparia; settings: for Plant response rating, Kochia: 31 g ai/ha, scale 0 to 100 (0 no effect, 100 complete control)
Procedure, shortened: as §2

corn = assay: Test C pre-/postemergence test; format: in vivo, Zea mays; settings: for Plant response rating, Corn: 31 g ai/ha, scale 0 to 100 (0 no effect, 100 complete control)
Procedure, shortened: as §2

morningglory [1] = assay: Test A pre-/postemergence greenhouse test; format: in vivo, Ipomoea spp.; settings: for Morningglory plant response rating: 0 to 100 scale; for Plant response rating, Morningglory: 0 to 100 scale where 0 is no effect and 100 is complete control
Procedure, shortened: as §1

morningglory [2] = assay: Test C pre-/postemergence test; format: in vivo, Ipomoea coccinea; settings: for Plant response rating, Morningglory: 31 g ai/ha, scale 0 to 100 (0 no effect, 100 complete control)
Procedure, shortened: as §2

green foxtail = assay: Test C pre-/postemergence test; format: in vivo, Setaria viridis; settings: for Plant response rating, Foxtail, Green: 31 g ai/ha, scale 0 to 100 (0 no effect, 100 complete control)
Procedure, shortened: as §2

[3] = system: common (oilseed) sunflower; assay: Test C pre-/postemergence test; format: in vivo, Helianthus annuus; settings: for Plant response rating, Sunflower: 31 g ai/ha, scale 0 to 100 (0 no effect, 100 complete control)
Procedure, shortened: as §2

cocklebur = assay: Test C pre-/postemergence test; format: in vivo, Xanthium strumarium; settings: for Plant response rating, Cocklebur: 31 g ai/ha, scale 0 to 100 (0 no effect, 100 complete control)
Procedure, shortened: as §2

umbrella sedge = assay: Test C flooded paddy test; format: in vivo, Cyperus difformis; settings: Flood
Procedure, shortened: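 Compound was added to standing water 3 cm above soil, flood maintained, and plants held in a greenhouse before visual scoring against controls at 13 to 15 days.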

woolly cupgrass = assay: Test C pre-/postemergence test; format: in vivo, Eriochloa villosa; settings: for Plant response rating, Cupgrass, Woolly: 31 g ai/ha, scale 0 to 100 (0 no effect, 100 complete control)
Procedure, shortened: as §2

pigweed = assay: Test C pre-/postemergence test; format: in vivo, Amaranthus retroflexus; settings: for Plant response rating, Pigweed: 31 g ai/ha, scale 0 to 100 (0 no effect, 100 complete control)
Procedure, shortened: as §2

crabgrass = assay: Test C pre-/postemergence test; format: in vivo, Digitaria sanguinalis; settings: for Plant response rating, Crabgrass, Large: 31 g ai/ha, scale 0 to 100 (0 no effect, 100 complete control)
Procedure, shortened: as §2

Italian ryegrass = assay: Test C pre-/postemergence test; format: in vivo, Lolium multiflorum; settings: for Plant response rating, Ryegrass, Italian: 31 g ai/ha, scale 0 to 100 (0 no effect, 100 complete control)
Procedure, shortened: as §2

[4] = Postemergence, 125 g ai/ha, 0 is no effect, 100 is complete control
[5] = Postemergence, 500 g ai/ha, 0 is no effect, 100 is complete control
[6] = Preemergence, 125 g ai/ha, 0 no effect, 100 complete control
[7] = 62 g ai/ha, Preemergence, scale 0 to 100
[8] = preemergence, 125 g ai/ha, scale 0 (no effect) to 100 (complete control)
[9] = 250 g ai/ha, scale 0 to 100, 0 no effect, 100 complete control, 13 to 15 days
[10] = 125 g ai/ha, preemergence, scale 0 (no effect) to 100 (complete control)
[11] = preemergence, 250 g ai/ha, scale 0 (no effect) to 100 (complete control)

With `Cn1nc(C(F)(F)F)c(C[S+]([O-])c2cc(C(C)(C)C)cc[n+]2[O-])c1OC(F)F` (racemic) [Compound 24] the “Barnyardgrass plant response rating” value (barnyardgrass; [4]) was 30, the “Barnyardgrass plant response rating” value (barnyardgrass; [5]) was 50 and the “Barnyardgrass plant response rating” value (barnyardgrass; [6]) was 60. The “Plant response rating, Barnyardgrass” value (barnyardgrass; Preemergence, 500 g ai/ha) was 100, the “Nutsedge, Yellow plant response rating” value (yellow nutsedge; [7]) was 70 and the “Plant response rating, Nutsedge, Yellow” value (yellow nutsedge; Preemergence) was 0. The “Soybean plant response rating” value (soybean; [7]) was 85, the “Plant response rating, Soybean” value (soybean; Preemergence) was 0 and the “Blackgrass plant response rating” value (blackgrass; [7]) was 20. The “Plant response rating, Blackgrass” value (blackgrass; Preemergence, 31 g ai/ha, scale 0 to 100 (0 no effect, 100 complete control)) was 20, the “Plant response rating (0 to 100), Blackgrass” value (blackgrass; Preemergence, 250 g ai/ha) was 100 and the “Blackgrass plant response rating” value (blackgrass; [8]) was 50. The “Wheat plant response rating” value (wheat; [7]) was 40, the “Plant response rating, Wheat” value (wheat; Preemergence) was 0 and the “Kochia plant response rating” value (kochia; [7]) was 5. The “Plant response rating, Kochia” value (kochia; Preemergence) was 0, the “Corn plant response rating” value (corn; [7]) was 50 and the “Plant response rating, Corn” value (corn; Preemergence) was 0. The “Plant response rating (0 to 100), Corn” value (corn; Preemergence, 250 g ai/ha) was 90, the “Corn plant response rating” value (corn; [8]) was 90 and the “Morningglory plant response rating” value (morningglory [1]; [4]) was 40. For the same compound, the “Morningglory plant response rating” value (morningglory [1]; [5]) was 90, the “Morningglory plant response rating” value (morningglory [1]; [6]) was 70 and the “Plant response rating, Morningglory” value (morningglory [1]; Preemergence, 500 g ai/ha) was 90. The “Morningglory plant response rating” value (morningglory [2]; [7]) was 80, the “Plant response rating, Morningglory” value (morningglory [2]; Preemergence) was 70 and the “Foxtail, Green plant response rating” value (green foxtail; [7]) was 70. For the same compound, the “Plant response rating, Foxtail, Green” value (green foxtail; Preemergence) was 10, the “Plant response rating (0 to 100), Foxtail, Green” value (green foxtail; Preemergence, 250 g ai/ha) was 100 and the “Sunflower plant response rating” value [3, 7] was 0. The “Plant response rating, Sunflower” value ([3]; Preemergence) was 0, the “Cocklebur plant response rating” value (cocklebur; [7]) was 0 and the “Plant response rating, Cocklebur” value (cocklebur; Preemergence) was 0. The “Cocklebur plant response rating” value (cocklebur; [8]) was 0, the “Plant response rating, Sedge, Umbrella” value (umbrella sedge; 31 g ai/ha, scale 0 to 100 (0 no effect, 100 complete control)) was 60 and the “Plant response rating, Sedge, Umbrella” value (umbrella sedge; 62 g ai/ha, scale 0 to 100, 0 no effect, 100 complete control, 13 to 15 days) was 85. For the same compound, the “Plant response rating, Sedge, Umbrella” value (umbrella sedge; 125 g ai/ha, scale 0 to 100, 0 no effect, 100 complete control, 13 to 15 days) was 95, the “Plant response rating, Sedge, Umbrella” value (umbrella sedge; [9]) was 95 and the “Cupgrass, Woolly plant response rating” value (woolly cupgrass; [7]) was 60. The “Plant response rating, Cupgrass, Woolly” value (woolly cupgrass; Preemergence) was 40, the “Plant response rating (0 to 100), Cupgrass, Woolly” value (woolly cupgrass; Preemergence, 250 g ai/ha) was 100 and the “Pigweed plant response rating” value (pigweed; [7]) was 100. The “Plant response rating, Pigweed” value (pigweed; Preemergence) was 100, the “Crabgrass, Large plant response rating” value (crabgrass; [7]) was 100 and the “Plant response rating, Crabgrass, Large” value (crabgrass; Preemergence) was 100. For the same compound, the “Plant response rating (0 to 100), Crabgrass, Large” value (crabgrass; Preemergence, 250 g ai/ha) was 100, the “Ryegrass, Italian plant response rating” value (Italian ryegrass; [7]) was 0 and the “Plant response rating, Ryegrass, Italian” value (Italian ryegrass; Preemergence) was 0.
In the case of `Cn1nc(OC(F)F)c(CS(=O)(=O)c2cccc[n+]2[O-])c1C(F)(F)F` [Compound 80], the “Plant response rating, Barnyardgrass” value (barnyardgrass; Postemergence, 125 g ai/ha) is reported as 80, the “Barnyardgrass plant response rating” value (barnyardgrass; [5]) is reported as 90 and the “Barnyardgrass plant response rating” value (barnyardgrass; [6]) is reported as 90. For the same compound, the “Plant response rating, Barnyardgrass” value (barnyardgrass; Preemergence, 500 g ai/ha) was 100, the “Nutsedge, Yellow plant response rating” value (yellow nutsedge; [7]) was 75 and the “Nutsedge, Yellow plant response rating” value (yellow nutsedge; [10]) was 85. The “Plant response rating, Nutsedge, Yellow” value (yellow nutsedge; Preemergence) was 45, the “Nutsedge, Yellow plant response rating” value (yellow nutsedge; [11]) was 95 and the “Soybean plant response rating” value (soybean; [7]) was 0. For the same compound, the “Soybean plant response rating” value (soybean; [10]) was 20, the “Plant response rating, Soybean” value (soybean; Preemergence) was 0 and the “Soybean plant response rating” value (soybean; [11]) was 20. For the same compound, the “Blackgrass plant response rating” value (blackgrass; [11]) was 90, the “Wheat plant response rating” value (wheat; [7]) was 45 and the “Wheat plant response rating” value (wheat; [10]) was 65. For the same compound, the “Plant response rating, Wheat” value (wheat; Preemergence) was 10, the “Wheat plant response rating” value (wheat; [11]) was 80 and the “Kochia plant response rating” value (kochia; [10]) was 70. For the same compound, the “Plant response rating, Kochia” value (kochia; Preemergence) was 0, the “Kochia plant response rating” value (kochia; [11]) was 100 and the “Corn plant response rating” value (corn; [7]) was 35. The “Corn plant response rating” value (corn; [10]) was 90, the “Plant response rating, Corn” value (corn; Preemergence) was 30 and the “Corn plant response rating” value (corn; [11]) was 98. For the same compound, the “Plant response rating, Morningglory” value (morningglory [1]; Postemergence, 125 g ai/ha) was 10, the “Morningglory plant response rating” value (morningglory [1]; [5]) was 50 and the “Morningglory plant response rating” value (morningglory [1]; [6]) was 60. For the same compound, the “Plant response rating, Morningglory” value (morningglory [1]; Preemergence, 500 g ai/ha) was 80, the “Morningglory plant response rating” value (morningglory [2]; [10]) was 100 and the “Plant response rating, Morningglory” value (morningglory [2]; Preemergence) was 10. For the same compound, the “Foxtail, Green plant response rating” value (green foxtail; [7]) was 85, the “Foxtail, Green plant response rating” value (green foxtail; [10]) was 100 and the “Plant response rating, Foxtail, Green” value (green foxtail; Preemergence) was 85. The “Foxtail, Green plant response rating” value (green foxtail; [11]) was 100, the “Sunflower plant response rating” value [3, 7] was 20 and the “Sunflower plant response rating” value [3, 10] was 40. The “Plant response rating, Sunflower” value ([3]; Preemergence) was 5, the “Sunflower plant response rating” value [3, 11] was 45 and the “Cocklebur plant response rating” value (cocklebur; [7]) was 0. The “Cocklebur plant response rating” value (cocklebur; [10]) was 45, the “Plant response rating, Cocklebur” value (cocklebur; Preemergence) was 0 and the “Cocklebur plant response rating” value (cocklebur; [11]) was 80. For the same compound, the “Plant response rating, Sedge, Umbrella” value (umbrella sedge; 62 g ai/ha, scale 0 to 100 (0 no effect, 100 complete control)) was 0, the “Plant response rating, Sedge, Umbrella” value (umbrella sedge; [9]) was 85 and the “Cupgrass, Woolly plant response rating” value (woolly cupgrass; [7]) was 100. The “Cupgrass, Woolly plant response rating” value (woolly cupgrass; [10]) was 100, the “Plant response rating, Cupgrass, Woolly” value (woolly cupgrass; Preemergence) was 100 and the “Cupgrass, Woolly plant response rating” value (woolly cupgrass; [11]) was 100. For the same compound, the “Pigweed plant response rating” value (pigweed; [7]) was 0, the “Pigweed plant response rating” value (pigweed; [10]) was 0 and the “Plant response rating, Pigweed” value (pigweed; Preemergence) was 0. For the same compound, the “Pigweed plant response rating” value (pigweed; [11]) was 0, the “Crabgrass, Large plant response rating” value (crabgrass; [7]) was 85 and the “Crabgrass, Large plant response rating” value (crabgrass; [10]) was 85. For the same compound, the “Plant response rating, Crabgrass, Large” value (crabgrass; Preemergence) was 85, the “Crabgrass, Large plant response rating” value (crabgrass; [11]) was 98 and the “Ryegrass, Italian plant response rating” value (Italian ryegrass; [7]) was 70. The “Ryegrass, Italian plant response rating” value (Italian ryegrass; [10]) was 85, the “Plant response rating, Ryegrass, Italian” value (Italian ryegrass; Preemergence) was 0 and the “Ryegrass, Italian plant response rating” value (Italian ryegrass; [11]) was 90.
